Paper PMC2990605 (British Journal of Cancer, 2010)

Experiment: Adverse events (CTCAEv3.0), worst grade per patient regardless of relation, and laboratory parameters
Format: in vivo
Settings: for Alanine aminotransferase increased, CTCAE grade 5, patients / Alopecia, CTCAE grade 5, patients / Anaemia, CTCAE grade 5, patients / Anorexia, CTCAE grade 5, patients / Arthralgia, CTCAE grade 5, patients / Back pain, CTCAE grade 5, patients / Blood bilirubin, CTCAE grade 5, patients / Bronchitis, CTCAE grade 5, patients / Constipation, CTCAE grade 5, patients / Cough, CTCAE grade 5, patients / Cystitis, CTCAE grade 5, patients / Dehydration, CTCAE grade 5, patients / Diabetes mellitus, CTCAE grade 5, patients / Diarrhoea, CTCAE grade 5, patients / Dizziness, CTCAE grade 5, patients / Drug hypersensitivity, CTCAE grade 5, patients / Dry skin, CTCAE grade 5, patients / Dyspnoea, CTCAE grade 5, patients / Eosinophilic myocarditis, CTCAE grade 5, patients / Erythema, CTCAE grade 5, patients / Fatigue, CTCAE grade 5, patients / Gastric dilatation, CTCAE grade 5, patients / General physical health deterioration, CTCAE grade 5, patients / Hypercalcaemia, CTCAE grade 5, patients / Hyperglycaemia, CTCAE grade 5, patients / Hyperhidrosis, CTCAE grade 5, patients / Leukopenia, CTCAE grade 5, patients / Malaise, CTCAE grade 5, patients / Mucosal inflammation, CTCAE grade 5, patients / Myalgia, CTCAE grade 5, patients / Nasopharyngitis, CTCAE grade 5, patients / Nausea, CTCAE grade 5, patients / Neutropenia, CTCAE grade 5, patients / Oedema peripheral, CTCAE grade 5, patients / Oedema, CTCAE grade 5, patients / Peripheral sensory neuropathy, CTCAE grade 5, patients / Pollakiuria, CTCAE grade 5, patients / Pruritus, CTCAE grade 5, patients / Pulmonary embolism, CTCAE grade 5, patients / Pyrexia, CTCAE grade 5, patients / Rash, CTCAE grade 5, patients / Spinal cord compression, CTCAE grade 5, patients / Tumour pain, CTCAE grade 5, patients / Urinary tract infection, CTCAE grade 5, patients / Vomiting, CTCAE grade 5, patients / γ-glutamyltransferase increased, CTCAE grade 5, patients: with paclitaxel
Protocol: Toxicity was evaluated according to common toxicity criteria for adverse events (CTCAEv3.0). The MTD was defined as the dose level(s) at which at least two out of six patients developed DLT.
Toxicity assessment, haematology and clinical biochemistry were performed at baseline and weekly during the study. Physical and ECOG performance status were recorded at baseline and before the next cycle.

CC(C)C[C@@H](C(=O)N[C@H](C(=O)OC1CCCC1)c1ccccc1)[C@H](O)C(=O)NO [tosedostat]
Alanine aminotransferase increased, CTCAE grade 5, patients (all cycles): 0 | Alopecia, CTCAE grade 5, patients (all cycles): 0 | Anaemia, CTCAE grade 5, patients (all cycles): 0 | Anorexia, CTCAE grade 5, patients (all cycles): 0 | Arthralgia, CTCAE grade 5, patients (all cycles): 0 | Back pain, CTCAE grade 5, patients (all cycles): 0 | Blood bilirubin, CTCAE grade 5, patients (all cycles): 0 | Bronchitis, CTCAE grade 5, patients (all cycles): 0 | Constipation, CTCAE grade 5, patients (all cycles): 0 | Cough, CTCAE grade 5, patients (all cycles): 0 | Cystitis, CTCAE grade 5, patients (all cycles): 0 | Dehydration, CTCAE grade 5, patients (all cycles): 0 | Diabetes mellitus, CTCAE grade 5, patients (all cycles): 0 | Diarrhoea, CTCAE grade 5, patients (all cycles): 0 | Dizziness, CTCAE grade 5, patients (all cycles): 0 | Drug hypersensitivity, CTCAE grade 5, patients (all cycles): 0 | Dry skin, CTCAE grade 5, patients (all cycles): 0 | Dyspnoea, CTCAE grade 5, patients (all cycles): 0 | Eosinophilic myocarditis, CTCAE grade 5, patients (all cycles): 1 | Erythema, CTCAE grade 5, patients (all cycles): 0 | Fatigue, CTCAE grade 5, patients (all cycles): 0 | Gastric dilatation, CTCAE grade 5, patients (all cycles): 0 | General physical health deterioration, CTCAE grade 5, patients (all cycles): 0 | Hypercalcaemia, CTCAE grade 5, patients (all cycles): 0 | Hyperglycaemia, CTCAE grade 5, patients (all cycles): 0 | Hyperhidrosis, CTCAE grade 5, patients (all cycles): 0 | Leukopenia, CTCAE grade 5, patients (all cycles): 0 | Malaise, CTCAE grade 5, patients (all cycles): 0 | Mucosal inflammation, CTCAE grade 5, patients (all cycles): 0 | Myalgia, CTCAE grade 5, patients (all cycles): 0 | Nasopharyngitis, CTCAE grade 5, patients (all cycles): 0 | Nausea, CTCAE grade 5, patients (all cycles): 0 | Neutropenia, CTCAE grade 5, patients (all cycles): 0 | Oedema peripheral, CTCAE grade 5, patients (all cycles): 0 | Oedema, CTCAE grade 5, patients (all cycles): 0 | Peripheral sensory neuropathy, CTCAE grade 5, patients (all cycles): 0 | Pollakiuria, CTCAE grade 5, patients (all cycles): 0 | Pruritus, CTCAE grade 5, patients (all cycles): 0 | Pulmonary embolism, CTCAE grade 5, patients (all cycles): 0 | Pyrexia, CTCAE grade 5, patients (all cycles): 0 | Rash, CTCAE grade 5, patients (all cycles): 0 | Spinal cord compression, CTCAE grade 5, patients (all cycles): 0 | Tumour pain, CTCAE grade 5, patients (all cycles): 0 | Urinary tract infection, CTCAE grade 5, patients (all cycles): 0 | Vomiting, CTCAE grade 5, patients (all cycles): 0 | γ-glutamyltransferase increased, CTCAE grade 5, patients (all cycles): 0 | Alanine aminotransferase increased, CTCAE grade 5, patients (first 21 days): 0 | Alopecia, CTCAE grade 5, patients (first 21 days): 0 | Anaemia, CTCAE grade 5, patients (first 21 days): 0 | Anorexia, CTCAE grade 5, patients (first 21 days): 0 | Arthralgia, CTCAE grade 5, patients (first 21 days): 0 | Back pain, CTCAE grade 5, patients (first 21 days): 0 | Blood bilirubin, CTCAE grade 5, patients (first 21 days): 0 | Bronchitis, CTCAE grade 5, patients (first 21 days): 0 | Constipation, CTCAE grade 5, patients (first 21 days): 0 | Cough, CTCAE grade 5, patients (first 21 days): 0 | Cystitis, CTCAE grade 5, patients (first 21 days): 0 | Dehydration, CTCAE grade 5, patients (first 21 days): 0 | Diabetes mellitus, CTCAE grade 5, patients (first 21 days): 0 | Diarrhoea, CTCAE grade 5, patients (first 21 days): 0 | Dizziness, CTCAE grade 5, patients (first 21 days): 0 | Drug hypersensitivity, CTCAE grade 5, patients (first 21 days): 0 | Dry skin, CTCAE grade 5, patients (first 21 days): 0 | Dyspnoea, CTCAE grade 5, patients (first 21 days): 0 | Eosinophilic myocarditis, CTCAE grade 5, patients (first 21 days): 0 | Erythema, CTCAE grade 5, patients (first 21 days): 0 | Fatigue, CTCAE grade 5, patients (first 21 days): 0 | Gastric dilatation, CTCAE grade 5, patients (first 21 days): 0 | General physical health deterioration, CTCAE grade 5, patients (first 21 days): 0 | Hypercalcaemia, CTCAE grade 5, patients (first 21 days): 0 | Hyperglycaemia, CTCAE grade 5, patients (first 21 days): 0 | Hyperhidrosis, CTCAE grade 5, patients (first 21 days): 0 | Leukopenia, CTCAE grade 5, patients (first 21 days): 0 | Malaise, CTCAE grade 5, patients (first 21 days): 0 | Mucosal inflammation, CTCAE grade 5, patients (first 21 days): 0 | Myalgia, CTCAE grade 5, patients (first 21 days): 0 | Nasopharyngitis, CTCAE grade 5, patients (first 21 days): 0 | Nausea, CTCAE grade 5, patients (first 21 days): 0 | Neutropenia, CTCAE grade 5, patients (first 21 days): 0 | Oedema peripheral, CTCAE grade 5, patients (first 21 days): 0 | Oedema, CTCAE grade 5, patients (first 21 days): 0 | Peripheral sensory neuropathy, CTCAE grade 5, patients (first 21 days): 0 | Pollakiuria, CTCAE grade 5, patients (first 21 days): 0 | Pruritus, CTCAE grade 5, patients (first 21 days): 0 | Pulmonary embolism, CTCAE grade 5, patients (first 21 days): 0 | Pyrexia, CTCAE grade 5, patients (first 21 days): 0 | Rash, CTCAE grade 5, patients (first 21 days): 0 | Spinal cord compression, CTCAE grade 5, patients (first 21 days): 0 | Tumour pain, CTCAE grade 5, patients (first 21 days): 0 | Urinary tract infection, CTCAE grade 5, patients (first 21 days): 0 | Vomiting, CTCAE grade 5, patients (first 21 days): 0 | γ-glutamyltransferase increased, CTCAE grade 5, patients (first 21 days): 0 | Alanine aminotransferase increased, CTCAE grade 1, patients (human, in vivo): 1 | Alanine aminotransferase increased, CTCAE grade 2, patients (human, in vivo): 1 | Alanine aminotransferase increased, CTCAE grade 3, patients (human, in vivo): 1 | Alanine aminotransferase increased, CTCAE grade 4, patients (human, in vivo): 0 | Alanine aminotransferase increased, patients with events, % (human, in vivo): 14% | Alopecia, CTCAE grade 2, patients (human, in vivo): 20 | Alopecia, CTCAE grade 3, patients (human, in vivo): 0 | Alopecia, CTCAE grade 4, patients (human, in vivo): 0 | Alopecia, patients with events, % (human, in vivo): 95% | Anaemia, CTCAE grade 1, patients (human, in vivo): 1 | Anaemia, CTCAE grade 4, patients (human, in vivo): 0 | Anorexia, CTCAE grade 1, patients (human, in vivo): 6 | Anorexia, CTCAE grade 2, patients (human, in vivo): 2 | Anorexia, CTCAE grade 3, patients (human, in vivo): 2 | Anorexia, CTCAE grade 4, patients (human, in vivo): 0 | Anorexia, patients with events, % (human, in vivo): 45% | Arthralgia, CTCAE grade 1, patients (human, in vivo): 5 | Arthralgia, CTCAE grade 2, patients (human, in vivo): 0 | Arthralgia, CTCAE grade 3, patients (human, in vivo): 0 | Arthralgia, CTCAE grade 4, patients (human, in vivo): 0 | Arthralgia, patients with events, % (human, in vivo): 23% | Back pain, CTCAE grade 1, patients (human, in vivo): 3 | Back pain, CTCAE grade 2, patients (human, in vivo): 2 | Back pain, CTCAE grade 3, patients (human, in vivo): 0 | Back pain, CTCAE grade 4, patients (human, in vivo): 0 | Back pain, patients with events, % (human, in vivo): 23% | Blood bilirubin, CTCAE grade 1, patients (human, in vivo): 0 | Blood bilirubin, CTCAE grade 2, patients (human, in vivo): 0 | Blood bilirubin, CTCAE grade 3, patients (human, in vivo): 1 | Blood bilirubin, CTCAE grade 4, patients (human, in vivo): 0 | Blood bilirubin, patients with events, % (human, in vivo): 5% | Bronchitis, CTCAE grade 1, patients (human, in vivo): 0 | Bronchitis, CTCAE grade 2, patients (human, in vivo): 0 | Bronchitis, CTCAE grade 3, patients (human, in vivo): 1 | Bronchitis, CTCAE grade 4, patients (human, in vivo): 0 | Bronchitis, patients with events, % (human, in vivo): 5% | Constipation, CTCAE grade 1, patients (human, in vivo): 3 | Constipation, CTCAE grade 2, patients (human, in vivo): 3 | Constipation, CTCAE grade 3, patients (human, in vivo): 0 | Constipation, CTCAE grade 4, patients (human, in vivo): 0 | Constipation, patients with events, % (human, in vivo): 27% | Cough, CTCAE grade 1, patients (human, in vivo): 8 | Cough, CTCAE grade 2, patients (human, in vivo): 1
